# Legend:
# Assay type in all cases: cell-based, human
# [1] = test system: DNA repair knockout HAP1 cell lines; test: Percentage of rescue in panel of 20 DNA repair-deficient cell lines after UV
# Excerpt: (§1) FIG. 3. Loss of MUTYH mimics acetohexamide function A. Bubble plot displaying the percentage of rescue, defined as the difference in survival of a given cell line treated with acetohexamide compared to untreated, following UV irradiation. The light grey, dark grey bubbles highlight ΔMUTYH, ΔXPA […], and black bubbles indicate the rest of the knockout cell lines and WT HAP1. The size of the bubbles indicates the significance as log10 (p-value). BER: base excision repair; NER: nucleotide excision repair; DSBR; double-strand break repair; MMR: mis-match repair; FA: Fanconi aneamia; DR; direct reversal; TLS; translesion synthesis. B. Survival of WT and MUTYH-deficient (ΔMUTYH) cells with or without 0.5 mM acetohexamide treatment, followed by UV irradiation, as assessed after 3 days using CellTitre-Glo. Loss of MUTYH protein was confirmed by immunoblotting using an anti-MUTYH antibody. ACTIN was used as a loading control. C. Deletion of MUTYH in WT HAP1 or an XPA-deficient background was confirmed by immunoblotting using an anti-MUTYH antibody. TUBULIN was used as a loading control. D. Clonogenic survival of WT, ΔXPA or ΔXPA-MUTYH cells irradiated with UV at the indicated doses or left untreated. Cells were fixed and stained 10 days later.
# Since acetohexamide enhanced the clearance of CPDs in NER-deficient cells, it was speculated that its mode-of-action could be via one the known DNA excision repair pathways. Thus, a panel of 20 DNA repair-deficient cell lines was prepared using CRISPR-Cas9, representing all DNA repair pathways. Pol kappa (POLK) was selected to represent translesion synthesis (TLS) polymerases since it has roles in the repair synthesis step of NER. Subsequently, these cell lines (as well as two wildtype controls) were treated with acetohexamide and exposed to UV irradiation (FIG. 3A). […]
# The DNA repair knockout cell lines were generated in collaboration with Horizon Genomics. […] Subsequently, the genomic DNA was isolated using Direct PCR-Cell Kit (PeqLab) and the region targeted by the gRNA was PCR amplified and analyzed by Sanger sequencing. […]
# ΔXPA cells = test: Long-term colony formation assay after UV irradiation; details: 0.5 mM acetohexamide for 6 hours, then UV; 10 days in culture (FIG. 1E)
# Excerpt: A. Schematic representation of the experimental setup used to perform the high-throughput drug screen, where drugs were used at five-times maximal plasma concentration (CLOUD; CeMM library of unique drugs). B. Bubble plot displaying the drugs used plotted against cell viability. Light grey bubbles indicate wildtype (WT) cells, dark grey bubbles indicate XPA-deficient cells (ΔXPA). […] C. Chemical structure of acetohexamide. D. Dose-response curve of WT and ΔXPA cells treated with or without 0.5 mM acetohexamide for 6 hours, followed by UV irradiation. Survival was assessed after 3 days, using CellTiter-Glo. […] Error bars indicate SEM (n=3). E. Colony formation using the same conditions indicated in (D), where cells were kept in culture for 10 days following UV irradiation, following which they were fixed and stained.
# Cells were treated with UV at different doses with or without drug pre-treatment and then seeded into 6-well plates, at a density of 1,000 cells/well, in duplicates for 2 weeks until visible colonies were formed. Then, the medium was removed, colonies were washed with PBS and fixed using 3.7% paraformaldehyde (PFA) for 1 hour. Subsequently, the PFA was removed and colonies were stained with 0.1% crystal violet in 5% ethanol solution for 1 hour. Next, the staining solution was removed and the wells were washed, imaged and quantified using CellProfiler.
# ΔXPA-MUTYH HAP1 cells = test: Colony formation of double knockout after UV irradiation; details: 0.5 mM for 6 hours, 15 J/M^2 UV, 10 days (FIG. 4C)
# Description: A. WT HAP1 cells were treated with or without 0.5 mM acetohexamide for 6 hours, then released into compound-free media for the indicated time points and immunoblotted with an anti-MUTYH antibody. ACTIN was used as a loading control. B. WT HAP1 cells were either treated with 0.5 mM acetohexamide alone or with 10 μM of the proteasome inhibitor MG132 for 6 hours and analyzed by immunoblotting using an anti-MUTYH antibody. C. Left panel: colony formation of the WT, ΔXPA or ΔXPA-MUTYH HAP1 cells treated with or without 0.5 mM acetohexamide for 6 hours, followed by 15 J/M^2 UV irradiation and then kept in culture for 10 days. Right panel: Macroscopic colonies were stained with crystal violet and quantified. D. WT, ΔXPA or ΔXPA-MUTYH HAP1 cells were treated with 15 J/M^2 UV or left untreated, then kept in culture for the indicated recovery times and analyzed by dot blot for the presence of CPDs within genomic DNA. […] F. Survival of WT and ΔMULE HAP1 cells exposed to UV irradiation at different doses and assessed after 3 days, using CellTitre-Glo.
# Cells were treated with UV at different doses with or without drug pre-treatment and then seeded into 6-well plates, at a density of 1,000 cells/well, in duplicates for 2 weeks until visible colonies were formed. […] Next, the staining solution was removed and the wells were washed, imaged and quantified using CellProfiler.
# MUTYH = MUTYH protein levels by immunoblotting; details: WT HAP1, 0.5 mM for 6 hours, alone or with 10 μM MG132 (FIG. 4A-B)
# Description: A. WT HAP1 cells were treated with or without 0.5 mM acetohexamide for 6 hours, then released into compound-free media for the indicated time points and immunoblotted with an anti-MUTYH antibody. ACTIN was used as a loading control. B. WT HAP1 cells were either treated with 0.5 mM acetohexamide alone or with 10 μM of the proteasome inhibitor MG132 for 6 hours and analyzed by immunoblotting using an anti-MUTYH antibody. C. Left panel: colony formation of the WT, ΔXPA or ΔXPA-MUTYH HAP1 cells treated with or without 0.5 mM acetohexamide for 6 hours, followed by 15 J/M^2 UV irradiation and then kept in culture for 10 days. Right panel: Macroscopic colonies were stained with crystal violet and quantified. D. WT, ΔXPA or ΔXPA-MUTYH HAP1 cells were treated with 15 J/M^2 UV or left untreated, then kept in culture for the indicated recovery times and analyzed by dot blot for the presence of CPDs within genomic DNA. E. Number of chromosomal abnormalities per metaphase spread of ΔXPA or ΔXPA-MUTYH HAP1 exposed to different doses of UV irradiation. Data in (E) represented as mean±SEM. F. Survival of WT and ΔMULE HAP1 cells exposed to UV irradiation at different doses and assessed after 3 days, using CellTitre-Glo.
# Cells were lysed in lysis buffer composed of RIPA lysis buffer supplemented with protease inhibitors (Sigma) and phosphatase inhibitors (Sigma, NEB). […]
# [2] = test system: MUTYH-deficient (ΔMUTYH) cells; test: Survival of MUTYH-deficient cells after UV irradiation; details: pre-incubation with 0.5 mM acetohexamide; 3 days (FIG. 3B)
# Excerpt: as §1, with “D. Clonogenic survival of WT, ΔXPA or ΔXPA-MUTYH cells irradiated with UV at the indicated doses or left untreated. Cells were fixed and stained 10 days later.” left out
# For UV irradiation, cells were washed with PBS, trypsinized, counted and distributed in equal number then irradiated with different doses of UV as indicated. […] After 72 hours, survival was measured using Cell Titer-Glo (Promega). […]
compound,measurement,setting,value
CC(=O)c1ccc(S(=O)(=O)NC(=O)NC2CCCCC2)cc1 [acetohexamide],"protective effect against UV-induced damage (percentage of rescue), knockout cell lines and wildtype",[1]; all knockout lines other than ΔMUTYH (FIG. 3A),comparable protective effect against UV-induced damage on all the knockout cell lines tested (and also to wildtype cells)
same,protective effect on NER-deficient cell lines,"[1]; knock out cell lines absent of XPA, XPC, ERCC8 (CSA), ERCC6 (CSB) or XPV (POLH)",general protective effect on NER-deficient cell lines
same,"protective effect against UV-induced damage (percentage of rescue), cells lacking MUTYH",[1]; ΔMUTYH (FIG. 3A),no effect on cells lacking MUTYH
same,"UV sensitivity of ΔXPA cells, long-term colony formation assay",ΔXPA cells,alleviated the UV sensitivity of ΔXPA cells almost to the level of wildtype cells
same,survival of double knockout ΔXPA-MUTYH upon UV treatment,ΔXPA-MUTYH HAP1 cells,did not lead to a further increase in survival upon UV treatment
same,MUTYH protein levels,MUTYH,decrease in MUTYH protein levels in a proteasome dependent manner
same,survival of ΔMUTYH cells after UV,[2],did not have a noticeable effect on survival
